Test results reported in patent US20210023024A1, “COMPOSITION FOR TREATMENT OF CHRONIC WOUNDS” (priority 2018, published 2021).

System: diabetic foot ulcer
Test: Clinical use of triclosan cream on diabetic foot ulcers (patients 1 and 2)
Type: in vivo, human
Source text: A triclosan cream formulation, according to an embodiment of the invention (Example 5), was applied to a number of patients, with differently presented conditions and symptoms. as described below:
diabetic. Neuro ischaemic. Heart rate: pulse mono and biphasic depending on the weather. Indication of reduced arterial blood flow due to a blockage or low elasticity. Ex-smoker. Stage 3 Non healing dorsal diabetic foot ulcer.
The patient had 2 ulcers: • 1) one on the dorsal IPJ on the 2nd toe, size of 5 pence, 1 cm sq and • 2) one on apex of 1st toe, size of 5p, 1 cm sq.
The patient was treated twice a week. The ulcer was filled with the cream to the brim, so the cream was level with skin surface. […] Triclosan cream was applied for 8 weeks. The cream was packed into the wound and a non-adhesive foam dressing was applied. The patient then wore rocker bottom soles to reduce the weight and pressure. Treatment for this toe ulcer started on Mar. 11, 2017 and healed on 20/1/18. No other medication was used.
The patient had 1 ulcer on sole of foot, approximately the size of 50 pence.
While the patient was receiving chemotherapy, the triclosan cream was applied for 8 weeks. The triclosan cream was applied every alternate day, with a sharp debridement and cleansed with sterile saline solution prior to application of the cream. In the last two weeks of treatment the cream was applied daily. […]

Cc1onc(-c2c(F)cccc2Cl)c1C(=O)N[C@@H]1C(=O)N2[C@@H]1SC(C)(C)[C@@H]2C(=O)O [Flucloxacilin]
outcome of previous treatment (Patient 1, before triclosan cream, Flucloxacilin 6 months intermittently, 6 courses): could not clear the infection in the wound | outcome of previous treatment (Patient 2, before triclosan cream): could not clear the infection in the wound
